What was measured:
Erysiphe graminis = experiment: Powdery Mildew of Wheat (ERYSGT); type: in vivo; conditions: wheat (cultivar Monon), inoculated, sprayed at 25 ppm after 48 hours
Protocol: Compound Formulation: […] Final treatment volumes were obtained by adding nine volumes 0.05kOO aqueous Tween-20 or Triton X-100, depending upon the pathogen. Powdery Mildew of Wheat (Erysiphe graminis-[…]): Wheat (cultivar Monon) was grown in a soilless peat-based potting mixture (Metromix) until the seedlings were 1-2 leaf (BBCH 12). These plants were then inoculated with Erysiphe graminis by dusting spores from stock plants onto the test plants. After 48 hours the plants were sprayed to run off with the test compound at a rate of 25 ppm and then kept in the greenhouse until disease developed on the untreated control plants. The following table presents the activity of typical compounds of the present invention when evaluated in these experiments. The effectiveness of the test compounds in controlling disease was rated using the following scale: […]

Plasmopara viticola = experiment: Downy Mildew of Grape (PLASVI), 96 hour protectant; type: in vivo; conditions: grape vines (cultivar Carignane), sprayed at 100 ppm, inoculated after 96 hours (protectant)
Protocol: Compound Formulation: […] Final treatment volumes were obtained by adding nine volumes 0.05kOO aqueous Tween-20 or Triton X-100, depending upon the pathogen. Downy Mildew of Grape (Plasmogara viticola-[…]) (96 Hour Protectant): Vines (cultivar Carignane) were grown from seed in a soilless peat-based potting mixture (Metromix) until the seedlings were 10-20 cm tall. These plants were then sprayed to run off with the test compound at a rate of 100 ppm. After 96 hours the test plants were inoculated by spraying with an aqueous sporangia suspension of Plasmopara viticola. The plants were then transferred to the greenhouse until disease developed on the untreated control plants. The following table presents the activity of typical compounds of the present invention when evaluated in these experiments. The effectiveness of the test compounds in controlling disease was rated using the following scale: […]

CNC(=O)C(=NOC)c1ccccc1COc1cccc(Sc2cccs2)n1 [Compound 15]
ERYSGT control of plant disease (Erysiphe graminis): ++ (++ = 75-100 % control of plant disease) | PLASVI control of plant disease (Plasmopara viticola): ++ (++ = 75-100 % control of plant disease)

CNC(=O)C(=NOC)c1ccccc1COc1cccc(Sc2ccc(SC)cc2)n1 [Compound 43]
ERYSGT control of plant disease (Erysiphe graminis): − (− = 0-24% control of plant disease) | PLASVI control of plant disease (Plasmopara viticola): ++ (++ = 75-100 % control of plant disease)

CNC(=O)C(=NOC)c1ccccc1COc1nc(OCc2ccco2)c(Cl)cc1Cl [Compound 3]
ERYSGT control of plant disease (Erysiphe graminis): + (+ = 25-74% control of plant disease) | PLASVI control of plant disease (Plasmopara viticola): ++ (++ = 75-100 % control of plant disease)

CNC(=O)C(=NOC)c1ccccc1COc1cccc(OCC2CCCO2)n1 (centres unmarked) [Compound 10]
ERYSGT control of plant disease (Erysiphe graminis): ++ (++ = 75-100 % control of plant disease) | PLASVI control of plant disease (Plasmopara viticola): + (+ = 25-74% control of plant disease)

CNC(=O)C(=NOC)c1ccccc1COc1nc(OCCOC)c(Cl)cc1Cl [Compound 33]
ERYSGT control of plant disease (Erysiphe graminis): + (+ = 25-74% control of plant disease) | PLASVI control of plant disease (Plasmopara viticola): ++ (++ = 75-100 % control of plant disease)

CNC(=O)C(=NOC)c1ccccc1COc1cccc(OCC2COC(C)(C(F)(F)F)O2)n1 (centres unmarked) [Compound 6]
ERYSGT control of plant disease (Erysiphe graminis): ++ (++ = 75-100 % control of plant disease)

CNC(=O)C(=NOC)c1ccccc1COc1cccc(OCCOC)n1 [Compound 25]
ERYSGT control of plant disease (Erysiphe graminis): ++ (++ = 75-100 % control of plant disease) | PLASVI control of plant disease (Plasmopara viticola): ++ (++ = 75-100 % control of plant disease)

CCCOCCOc1cccc(OCc2ccccc2C(=NOC)C(=O)NC)n1 [Compound 31]
ERYSGT control of plant disease (Erysiphe graminis): ++ (++ = 75-100 % control of plant disease) | PLASVI control of plant disease (Plasmopara viticola): ++ (++ = 75-100 % control of plant disease)

CCOc1cccc(Oc2cccc(OCc3ccccc3C(=NOC)C(=O)NC)n2)c1 [Compound 67]
PLASVI control of plant disease (Plasmopara viticola): ++ (++ = 75-100 % control of plant disease)

CCCOC(C)COc1cccc(OCc2ccccc2C(=NOC)C(=O)NC)n1 (centres unmarked) [Compound 32]
ERYSGT control of plant disease (Erysiphe graminis): ++ (++ = 75-100 % control of plant disease)

CCCOc1ccc(Sc2cccc(OCc3ccccc3C(=NOC)C(=O)NC)n2)cc1 [Compound 87]
ERYSGT control of plant disease (Erysiphe graminis): ++ (++ = 75-100 % control of plant disease)

CNC(=O)C(=NOC)c1ccccc1COc1nc(OCc2ccco2)c(Cl)cc1Cl [Compound 4]
ERYSGT control of plant disease (Erysiphe graminis): − (− = 0-24% control of plant disease) | PLASVI control of plant disease (Plasmopara viticola): − (− = 0-24% control of plant disease)

CCSCCSc1cccc(OCc2ccccc2C(=NOC)C(=O)NC)n1 [Compound 50]
ERYSGT control of plant disease (Erysiphe graminis): − (− = 0-24% control of plant disease) | PLASVI control of plant disease (Plasmopara viticola): ++ (++ = 75-100 % control of plant disease)

CCCCSCCOc1cccc(OCc2ccccc2C(=NOC)C(=O)NC)n1 [Compound 48]
ERYSGT control of plant disease (Erysiphe graminis): − (− = 0-24% control of plant disease) | PLASVI control of plant disease (Plasmopara viticola): + (+ = 25-74% control of plant disease)

CNC(=O)C(=NOC)c1ccccc1COc1cccc(OCC(C)OC)n1 (centres unmarked) [Compound 30]
ERYSGT control of plant disease (Erysiphe graminis): ++ (++ = 75-100 % control of plant disease) | PLASVI control of plant disease (Plasmopara viticola): ++ (++ = 75-100 % control of plant disease)

CNC(=O)C(=NOC)c1ccccc1COc1cccc(Sc2ccccc2OC)n1 [Compound 42]
ERYSGT control of plant disease (Erysiphe graminis): ++ (++ = 75-100 % control of plant disease) | PLASVI control of plant disease (Plasmopara viticola): ++ (++ = 75-100 % control of plant disease)

CCCOCCOc1cccc(OCc2c(F)cccc2C(=NOC)C(=O)NC)n1 [Compound 59]
PLASVI control of plant disease (Plasmopara viticola): ++ (++ = 75-100 % control of plant disease)

CCCCOCCOc1cccc(OCc2ccccc2C(=NOC)C(=O)NC)n1 [Compound 46]
ERYSGT control of plant disease (Erysiphe graminis): + (+ = 25-74% control of plant disease) | PLASVI control of plant disease (Plasmopara viticola): ++ (++ = 75-100 % control of plant disease)

CNC(=O)C(=NOC)c1ccccc1COc1cccc(OCC2(C)COC2)n1 [Compound 7]
ERYSGT control of plant disease (Erysiphe graminis): ++ (++ = 75-100 % control of plant disease) | PLASVI control of plant disease (Plasmopara viticola): + (+ = 25-74% control of plant disease)

CCCCSCCOc1cccc(OCc2ccccc2C(=NOC)C(=O)NC)n1 [Compound 47]
ERYSGT control of plant disease (Erysiphe graminis): ++ (++ = 75-100 % control of plant disease) | PLASVI control of plant disease (Plasmopara viticola): ++ (++ = 75-100 % control of plant disease)

CNC(=O)C(=NOC)c1ccccc1COc1cccc(SCc2ccc(OC)cc2)n1 [Compound 34]
ERYSGT control of plant disease (Erysiphe graminis): ++ (++ = 75-100 % control of plant disease) | PLASVI control of plant disease (Plasmopara viticola): ++ (++ = 75-100 % control of plant disease)

CNC(=O)C(=NOC)c1ccccc1COc1cccc(OCc2ccco2)n1 [Compound 8]
ERYSGT control of plant disease (Erysiphe graminis): − (− = 0-24% control of plant disease) | PLASVI control of plant disease (Plasmopara viticola): ++ (++ = 75-100 % control of plant disease)

CNC(=O)C(=NOC)c1ccccc1COc1cccc(Sc2cccc(OC)c2)n1 [Compound 39]
ERYSGT control of plant disease (Erysiphe graminis): ++ (++ = 75-100 % control of plant disease)

CCCOC(C)COc1nc(OCc2ccccc2C(=NOC)C(=O)NC)c(Cl)cc1Cl (centres unmarked) [Compound 26]
ERYSGT control of plant disease (Erysiphe graminis): ++ (++ = 75-100 % control of plant disease) | PLASVI control of plant disease (Plasmopara viticola): + (+ = 25-74% control of plant disease)

CNC(=O)C(=NOC)c1ccccc1COc1cccc(Oc2ccc(OC)cc2)n1 [Compound 38]
ERYSGT control of plant disease (Erysiphe graminis): ++ (++ = 75-100 % control of plant disease)

CNC(=O)C(=NOC)c1ccccc1COc1nc(OCC(C)OC)c(Cl)cc1Cl (centres unmarked) [Compound 28]
ERYSGT control of plant disease (Erysiphe graminis): ++ (++ = 75-100 % control of plant disease) | PLASVI control of plant disease (Plasmopara viticola): ++ (++ = 75-100 % control of plant disease)

CNC(=O)C(=NOC)c1ccccc1COc1cccc(Sc2ccccc2OC(F)(F)F)n1 [Compound 41]
ERYSGT control of plant disease (Erysiphe graminis): + (+ = 25-74% control of plant disease) | PLASVI control of plant disease (Plasmopara viticola): ++ (++ = 75-100 % control of plant disease)

CCSCCOc1cccc(OCc2ccccc2C(=NOC)C(=O)NC)n1 [Compound 45]
ERYSGT control of plant disease (Erysiphe graminis): + (+ = 25-74% control of plant disease) | PLASVI control of plant disease (Plasmopara viticola): ++ (++ = 75-100 % control of plant disease)

CCOCCNc1nc(OCc2ccccc2C(=NOC)C(=O)NC)c(Cl)cc1Cl [Compound 23]
ERYSGT control of plant disease (Erysiphe graminis): ++ (++ = 75-100 % control of plant disease) | PLASVI control of plant disease (Plasmopara viticola): ++ (++ = 75-100 % control of plant disease)

CCCOCCOc1cccc(OCc2ccccc2C(=NOC)C(=O)NC)n1 [Compound 36]
ERYSGT control of plant disease (Erysiphe graminis): + (+ = 25-74% control of plant disease) | PLASVI control of plant disease (Plasmopara viticola): ++ (++ = 75-100 % control of plant disease)

CCOCCOc1cccc(OCc2c(Cl)cccc2C(=NOC)C(=O)NC)n1 [Compound 63]
PLASVI control of plant disease (Plasmopara viticola): ++ (++ = 75-100 % control of plant disease)

CNC(=O)C(=NOC)c1ccccc1COc1cccc(OCC2COC(C(F)(F)F)(C(F)(F)F)O2)n1 (centres unmarked) [Compound 11]
PLASVI control of plant disease (Plasmopara viticola): ++ (++ = 75-100 % control of plant disease)

CCCOCCOc1nc(OCc2ccccc2C(=NOC)C(=O)NC)c(Cl)cc1Cl [Compound 29]
ERYSGT control of plant disease (Erysiphe graminis): + (+ = 25-74% control of plant disease) | PLASVI control of plant disease (Plasmopara viticola): ++ (++ = 75-100 % control of plant disease)

CNC(=O)C(=NOC)c1ccccc1COc1cccc(OCCOCc2ccccc2)n1 [Compound 51]
ERYSGT control of plant disease (Erysiphe graminis): ++ (++ = 75-100 % control of plant disease) | PLASVI control of plant disease (Plasmopara viticola): ++ (++ = 75-100 % control of plant disease)

CNC(=O)C(=NOC)c1ccccc1COc1cccc(OCCOc2ccccc2)n1 [Compound 49]
ERYSGT control of plant disease (Erysiphe graminis): ++ (++ = 75-100 % control of plant disease) | PLASVI control of plant disease (Plasmopara viticola): ++ (++ = 75-100 % control of plant disease)

CNC(=O)C(=NOC)c1ccccc1COc1cccc(Sc2nnc(SC)s2)n1 [Compound 12]
ERYSGT control of plant disease (Erysiphe graminis): − (− = 0-24% control of plant disease) | PLASVI control of plant disease (Plasmopara viticola): − (− = 0-24% control of plant disease)

CNC(=O)C(=NOC)c1ccccc1COc1cccc(OCC2CCCCO2)n1 (centres unmarked) [Compound 9]
ERYSGT control of plant disease (Erysiphe graminis): + (+ = 25-74% control of plant disease) | PLASVI control of plant disease (Plasmopara viticola): ++ (++ = 75-100 % control of plant disease)

Source: US6369083B1, “2-methoxyimino-2 (pyrinyloxymethyl) phenyl acetamides with polyether derivatives on the pyridine ring” (Dow AgroSciences LLC, priority 1998, dated 2002)
